Entries after “also recorded” stand apart in the source; their conditions may differ.

For assay [1], the target named is T1, proteasome b2 subunit (trypsin-like activity) (Homo sapiens, UniProt Q99436).
T1 construct: Cells were lysed at 4×10^6 cells/ml in proteasomal activity assay buffer; endogenous in cells; host or cells: BCWM.1 and BCWM.1/BR (lysates)
Nature of the assay: Proteasomal activity assay, trypsin-like (LRR-AMC), WM cells. It is filed as biochemical. As to conditions: 10 nM; BCWM.1 and BCWM.1/BR shown. The protocol:
FIGS. 17A-17D are a series of graphs plotting the effects of bortezomib (10 nM), carfilzomib (10 nM) and b-AP15 (10 nM) on caspase-like and trypsin-like proteasomal activities, as assessed in three WT and three BR WM cell lines in vitro using the fluorogenic substrates LLE-AMC (caspase-like activity) and LRR-AMC (trypsin-like activity). Reactions were incubated at 37° C. for 1 hour and the fluorescence was measured at 360/460 and expressed as relative fluorescence units (RFU), using BioTek synergy HT plate reader. Data from two representative cell lines (BCWM.1 and its BR subclone) are shown.
Cells were lysed at 4×10^6 cells/ml in proteasomal activity assay buffer [assay buffer; 25 mmol/1 HEPES buffer, pH7.5 containing 0.5 mmol/1 EDTA, 0.05% Nonidet P-40, 0.01% sodium dodecyl sulfate (SDS)] and immediately used in the assay. Enzyme reactions were performed in 96-well plates with 100 μl of final volume containing […] fluorogenic peptide substrates. The substrates used were LLVY-AMC for chymotrypsin like activity, LLE-AMC for caspase-like activity and LRR-AMC for trypsin-like activity. Reactions were incubated at 37° C. for 1 hour and fluorescence was measured at 360/460 using a BioTek synergy HT plate reader (BioTek, Winooski, Vt.).

A further assay has as its system WM cells. Nature of the assay: Immunoblot analysis of WM cells. It is filed as cell-based, human. The protocol: Total protein extracts were made using radioimmunoprecipitation assay lysis buffer (50 mmol/1 Tris containing 150 mmol/1 NaCl, 0.1% SDS, 1% TritonX-100, 1% sodium deoxycholate, pH 7.2) with 0.2% protease and phosphatase inhibitor cocktail (Sigma, St. Louis, Mo.) on ice for 40 minutes, vortexing for 5 seconds every 10 minutes. Following centrifugation at 18,400 g for 20 minutes, the supernatant was collected and used for Western blot analyses. Protein content in the extracts was measured by bicinchoninic acid protein assay reagent. Aliquots of 20 μg of total protein were boiled in Laemmli sample buffer, loaded onto 10% SDS-PAGE gels, and transferred onto a nitrocellulose membrane. Membranes were blocked for 1 hour in TBS/Tween 20 [TTBS] containing 1% nonfat dried milk and 1% BSA. Incubation with primary antibodies was done overnight at 4° C., followed by washing 3× with TTBS and incubation for 1 hour with HRP-conjugated secondary antibody. The blots were developed using chemiluminescence (Thermo Scientific, Rockford, Ill.).

For the next assay, the system named is RPCI-WM1. Kind of assay: MTS viability assay, RPCI-WM1. It counts as cell-based, human. Conditions: 72-h MTS assay. The protocol:
(§1) Twenty thousand cells/200 μl in quadruplicates were incubated with serially diluted b-AP15 (1-1000 nmol/l) in 96-well plates at 37° C. for 72 hours. MTS (3-(4,5-dimethylthiazol-2-yl)-5-(3-carboxymethoxyphenyl)-2-(4-sulfophenyl)-2H-tetrazolium) reagent (Molecular Probes, Eugene, Oreg.) was added at 40 μl/well and the plates were further incubated at 37° C. for 3 hours and the developed color was read at 490 nm using a BioTek synergy HT plate reader against blanks with no cells.
For orientation: Tetrazolium dyes change colour on reduction, which living cells bring about.

The subject of another assay is RPCI-WM1/BR. Nature of the assay: MTS viability assay, RPCI-WM1/BR. It counts as cell-based, human. Conditions: 72-h MTS assay. Here is the method:
as §1

Assay [2] relates to WM cell lines (WT and BR). Kind of assay: Annexin-V apoptosis assay, WM cell lines. It is filed as cell-based, human. As to conditions: 0.64 μmol/l, 12 hours. The protocol: FIGS. 12A-12D are a series of graphs and Western blots showing b-AP15 induction of tumor-specific apoptosis in WM cell lines and primary patient-derived WM cells. FIG. 12A is a graph plotting cell death as a percentage of control cell death for all available WM cell lines (n=6, WT and BR derivatives) after treatment with the indicated concentrations of b-AP15, followed by staining with annexin-V and propidium iodide and then flow cytometry to examine apoptosis. […] Each experiment was conducted a minimum of three times with control cells (no drug treatment) showing a viability ([…] and propidium iodide-negative population) of >85%. Following treatment, the percentage of cells affected by b-AP15 was calculated by normalizing data from treated cells relative to the control (untreated) cells. […]
Apoptosis was measured using the Annexin V binding assay kit from BD Biosciences according to the manufacturer's instructions. […] Fluorescein isothiocycanate (FITC)-labelled Annexin V (5 μl) and propidium iodide (10μ were added to each sample and incubated in the dark for 15 minutes at room temperature. The cells were subsequently analyzed by flow cytometry using BD Accuri, the C6 flow cytometer and its software. Data from 10,000 events per sample were collected and analyzed.

The next assay deals with WT and BR WM cells. Kind of assay: Mitochondrial outer membrane permeability (TMRM), WM cell lines. It is filed as cell-based, human. The protocol:
Cells were treated with different agents for 48 hours and assessed for MOMP using tetramethylrhodamine methyl ester [TMRM] (Life Technologies). TMRM was directly added to the cell cultures at 100 nmol/1 concentrations and incubated at 37° C. in the dark for 15 minutes. At the end of the incubation, cells were washed twice with cold PBS containing 2% FBS and analyzed. The cells were washed for fluorescence (FL2) and analyzed by BD Accuri, the C6 flow cytometer and its software. Data from at least 20,000 events per sample were collected and analyzed. TMRM-negative (%) cells were calculated to determine % MOMP.

Another assay deals with MWCL-1/BR. Nature of the assay: MTS viability assay, MWCL-1/BR. Conditions: 72-h MTS assay, MWCL-1B/BR. It is filed as cell-based, human. The protocol:
as §1

T1 sequence (Q99436 44-277): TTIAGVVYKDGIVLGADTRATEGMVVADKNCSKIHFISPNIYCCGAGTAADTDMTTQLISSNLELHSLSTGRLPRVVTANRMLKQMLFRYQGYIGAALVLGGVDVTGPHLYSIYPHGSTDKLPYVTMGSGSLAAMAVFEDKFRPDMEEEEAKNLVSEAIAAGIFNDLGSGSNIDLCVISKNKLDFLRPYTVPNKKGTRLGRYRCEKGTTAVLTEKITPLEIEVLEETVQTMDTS

What is called IC50 is the concentration that gives 50% inhibition. In the case of `C=CC(=O)N1C/C(=C\c2ccc([N+](=O)[O-])cc2)C(=O)/C(=C/c2ccc([N+](=O)[O-])cc2)C1` [b-AP15], the trypsin-like proteasomal activity result in assay [1] is on record as “no change in trypsin-like activity”. The BCL2 protein entry with WM cells is “No change”. Further, the p-EIF2a expression entry with WM cells is reported as “did not appear to change”. Besides, the “phosphorylated MAPK14 (p38) protein” value with WM cells (6-hour treatment) was “significant increase”. The “RELA nuclear protein levels” value with WM cells (6 hours, BCWM.1 shown) is listed as “marked reduction; also recorded: markedly reduced”. For the same molecule, in the assay with WM cells (BCWM.1), the “MYC total and nuclear expression” value was “reduced total and nuclear expression”. For the same molecule, in the assay with WM cells (BR models), the “EIF2AK3 (PERK) levels” value is “decreased EIF2AK3 levels”. For the same molecule, the “USP14 and UCHL5 protein expression” value with WM cells (WM cell lines (WT and BR), 0.5 and 1 μmol/l) is on record as “no observable shift”; in the assay with WM cells (primary CD19+/CD138+ WM cells, 0.5 μmol/l), “did not change”. In addition, the PARP1 cleavage entry in the assay on WM cells (WM cell lines and primary WM tumor cells) is recorded as “confirming execution of apoptosis”. The TP53 protein entry in the assay with WM cells (WT and BR WM cells) is on record as “marginal increase”. In addition, the HSPA1A protein result in the assay with WM cells (all cell lines) was “further induced”. Also, the “ERN1a, XBP1u and XBP1s protein” value in the assay on WM cells (all models tested) is given as “significantly induced”. In addition, the “total ubiquitinated cellular protein content” value in the assay on WM cells (dose-dependent) was “increasing amounts of high molecular weight polyubiquitinated conjugates”. The “p-MAPK3/MAPK1 (ERK1/2)” value in the assay on WM cells (wild type cell lines) is listed as “increase”. Also, the results for the 50% inhibitory concentration (IC50) in the assay on RPCI-WM1, with RPCI-WM1/BR and with MWCL-1/BR were 16 nM, 57 nM and 3 nM, respectively. Further, the “WM cells experiencing apoptosis” value in assay [2] was “approximately 50%”. Further, in the assay on WT and BR WM cells, the MOMP result is “significantly induced”.

For the origin of these results see patent publication US20170128518A1, “METHODS AND MATERIALS FOR IDENTIFYING AND TREATING MAMMALS RESISTANT TO PROTEASOME INHIBITOR TREATMENTS” (Mayo Foundation for Medical Education and Research, priority 2014, published 2017).
